Where a name gives a salt, the structure may show the parent alone.
How the values were obtained:
[1] = system: passive cutaneous anaphylaxis (PCA) reaction; experiment: 48-hour homologous PCA (passive cutaneous anaphylaxis) test in rats, antiallergic activity; format: in vivo, male Wistar strain rats; conditions: minimum dose with at least one positive among three rats; for minimal effective dose: Rattus norvegicus, po, read-out: Antiallergic Activity, MED (minimum effective dose); for Antiallergic Activity, MED (minimum effective dose): oral
Protocol: The 48-hour homologous PCA (passive cutaneous anaphylaxis) test was employed. As test animals, male Wistar strain rats weighing 180 to 220 g were used for preparation of antiserum and those weighing 120 to 140 g for PCA test.
(A) Preparation of rat antiserum to EWA
Rat antiserum to egg white albumin (EWA) was prepared by the method of Stotland Share [Canad. J. Physiol. Pharmacol. 52, 1114 (1974)] as follows. One mg of EWA was mixed with 20 mg of aluminum hydroxide gel and 0.5 ml of pertussis/diphtheria/tetanus mixed vaccine, and the mixture was subcutaneously injected to each rat through the sole in four portions. After 14 days, blood samples were taken from the carotid artery, and the serum was separated and stored at -80° C. The 48-hour homologous PCA titer of this antiserum was 1:32.
(B) 48-hour homologous PCA test in rats
Three rats for each group were employed for 48-hour homologous PCA test. Rats were passively sensitized by injecting intradermally at the two spots on the shaved back 0.05 ml portions of the antiserum which was diluted 8-fold with physiological saline. After 47 hours, test compounds or the solutions thereof (physiological saline solution or CMC solution) were orally administered to the rats, and after one hour, the animals were injected intraveneously to tail vein 0.5 ml/100 g body weight of saline containing 2 mg of EWA, together with 1% Evans blue. Thirty minutes after antigen challenge, the rats were sacrificed by exanguination, and the skin was cut out, followed by the evaluation of the intensity of PCA reaction by expressing the amounts of dye leaked. The amounts of dye leaked from the blue-stained section were measured by the metod of Katayama, et al [Microbiol. Immunol. 22, 89 (1978)] as follows. A portion of the blue-stained section cut out with scissors was placed in a test tube containing 1 ml of 1N KOH solution, and incubated at 37° C. for 24 hours. 9 ml of a mixture of 0.6N phosphoric acid and acetone (5:13) was added, and the mixture was shaken and subjected to centrifugation at 2500 rpm for 10 minutes. Then, the absorbance of the supernatant liquid at 620 mμ was measured, and the amount of eluted dye was determined by using a calibration curve previously prepared. The average of the measurements for the two positions was taken as the value for each individual, and the inhibition rate for each rat was calculated from the following formula: [formula]
PCA inhibiting activity was evaluated as positive when the inhibition rate was 50% or higher, and the minimum dose required to achieve positive result for at least one among the three rats in each group was taken as the minimum effective dose (MED).

male dd strain mice = experiment: Acute toxicity (minimum lethal dose); format: in vivo; conditions: mortality seven days after administration; for Acute Toxicity (MLD) ip: intraperitoneal
Protocol: The present compound was administered orally (p.o. 300 mg/kg) or intraperitoneally (i.p. 100 mg/kg) to several groups of male dd strain mice weighing 19 to 21 g (each group consisting of three mice), and MLD (minimum lethal dose) was determined by observing the mortality seven days after administration.

Row | SMILES | minimal effective dose [1] | Acute Toxicity (MLD) ip (male dd strain mice) | Acute Toxicity (MLD) PO (male dd strain mice) | Antiallergic Activity, MED (minimum effective dose) [1]
1 | CN1CCN(C2c3ccccc3COc3ccc(C(=O)O)cc32)CC1 (stereo not drawn) [Compound 3, 11-(4-Methylpiperazino)-6,11-dihydrodibenz[b,e]oxepin-2-carboxylic acid diacetate.2H2 O] | 1 mg/kg | > 100 mg/kg | > 300 mg/kg | 
2 | CN1CCN(C2c3ccccc3COc3ccc(C(N)=O)cc32)CC1 (stereo not drawn) [Compound 4, 11-(4-Methylpiperazino)-6,11-dihydrodibenz[b,e]oxepin-2-carboamide] | 10 mg/kg | > 100 mg/kg | > 300 mg/kg | 
3 | CN1CCN(C2c3ccccc3COc3ccc(-c4nnn[nH]4)cc32)CC1 (stereo not drawn) [Compound 6, 11-(4-Methylpiperazino)-2-(5-tetrazolyl)-6,11-dihydrodibenz[b,e]oxepin Na salt] | 10 mg/kg | > 100 mg/kg | > 300 mg/kg | 
4 | CCOC(=O)c1ccc2c(c1)C(SCCN(C)C)c1ccccc1CO2 (stereo not drawn) [Compound 7, 11-(N,N--dimethylaminoethyl)thio-6,11-dihydrodibenz[b,e]oxepin-2-carboxylic acid ethyl ester] | 10 mg/kg | > 100 mg/kg | > 300 mg/kg | 
5 | CN(C)CCSC1c2ccccc2COc2ccc(C(=O)O)cc21 (stereo not drawn) [Compound 8, 11-(N,N--dimethylaminoethyl)thio-6,11-dihydrodibenz[b,e]oxepin-2-carboxylic acid acetate] |  | > 100 mg/kg | > 300 mg/kg | 10 mg/kg
6 | CN(C)CCSC1c2ccccc2COc2ccc(C#N)cc21 (stereo not drawn) [Compound 10, 11-(N,N--dimethylaminoethyl)thio-6,11-dihydrodibenz[b,e]oxepin-2-carbonitrile] | 1 mg/kg | > 100 mg/kg | > 300 mg/kg | 
7 | CCOC(=O)c1ccc2c(c1)C(OCCN(C)C)c1ccccc1CO2 (stereo not drawn) [Compound 11, 11-(N,N--dimethylaminoethyl)oxy-6,11-dihydrodibenz[b,e]oxepin-2-carboxylic acid ethyl ester] | 1 mg/kg | > 100 mg/kg | > 300 mg/kg | 
8 | CN(C)CCNC1c2ccccc2COc2ccc(C(N)=O)cc21 (stereo not drawn) [Compound 14, 11-(N,N--dimethylaminoethyl)amino-6,11-dihydrodibenz[b,e]oxepin-2-carboamide] | 1 mg/kg | > 100 mg/kg | 300 mg/kg | 
9 | CCOC(=O)c1ccc2c(c1)C(NC1CN3CCC1CC3)c1ccccc1CO2 (stereo not drawn) [Compound 17, 11-(3-Quinuclidinyl)amino-6,11-dihydrodibenz[b,e]oxepin-2-carboxylic acid ethyl ester] | 0.1 mg/kg | > 100 mg/kg | > 300 mg/kg | 
10 | CCOC(=O)OC(C)OC(=O)c1ccc2c(c1)C(N1CCN(C)CC1)c1ccccc1CO2 (stereo not drawn) [Compound 19, 11-(4-Methylpiperazino)-6,11-dihydrodibenz[b,e]oxepin-2-carboxylic acid (1-ethoxycarbonyloxy)ethyl ester] | 1 mg/kg | > 100 mg/kg | > 300 mg/kg | 
11 | CCOC(=O)OC(C)OC(=O)c1ccc2c(c1)C(SCCN(C)C)c1ccccc1CO2 (stereo not drawn) [Compound 20, 11-(N,N--dimethylaminoethyl)thio-6,11-dihydrodibenz[b,e]oxepin-2-carboxylic acid (1-ethoxycarbonyloxy)ethyl ester] | 0.1 mg/kg | > 100 mg/kg | > 300 mg/kg | 
12 | CN1CCN(C2c3ccccc3COc3ccc(C(=O)O)cc32)CC1 (stereo not drawn) [Compound 21, 11-(4-Methylpiperazino)-6,11-dihydrodibenz[b,e]oxepin-2-carboxylic acid dihydrochloride.1/4H2 O] |  | > 100 mg/kg | > 300 mg/kg | 1 mg/kg
13 | CN(C)CCSC1c2ccccc2COc2ccc(C(=O)O)cc21 (stereo not drawn) [Compound 22, 11-(N,N--dimethylaminoethyl)thio-6,11-dihydrodibenz[b,e]oxepin-2-carboxylic acid hydrochloride.1/2H2 O] |  | > 100 mg/kg | > 300 mg/kg | 0.1 mg/kg

From US4596804A, “Dibenz[b,e]oxepin compounds” (Kyowa Hakko Kogyo Co., Ltd., priority 1983, dated 1986)
